Results published in patent US20150355179A1, “CDKACT BIOSENSORS-FLUORESCENT POLYPEPTIDE TO PROBE THE ACTIVITY OF CDK/CYCLIN KINASES IN VITRO, IN CELLULO AND IN VIVO” (CENTRE NATIONAL DE LA RECHERCHE SCIENTIFIQUE (CNRS), priority 2012, published 2015).

Columns and labels:
[1] = test system: CDK/Cyclin kinase activity in HeLa cell extracts; experiment: Fluorescence kinase assay of CDKACTH1 in HeLa cell extracts; assay type: biochemical; settings: 20 ug HeLa cell extracts, increasing concentrations of inhibitor
Protocol: (§1) Fluorescence kinase assays were performed in 96-well plates in a thermostated chamber (Polarstar BMG) at 30° C. in 200 ul phosphate buffer saline, pH 7.2, 150 mM NaCl, in the presence of 5 mM MgCl2, 0.5 mM ATP, except when stated otherwise. The fluorescence of Cy3-labelled CDKACTH1 with recombinant CDK/Cyclin complexes or with cell extracts was monitored over time. Changes in Cy3 fluorescence emission were recorded at 590 nm following excitation at 544 nm. In all experiments, the fluorescence of CDKACTH1-Cy3 alone was substracted from all other values. Data analysis and curve fitting were performed using the GraFit Software (Erathicus Ltd).
Cell culture media, serum and antibiotics were purchased from Invitrogen. HeLa, HS68, A549, MCF-7 and U2OS cells were cultured in DMEM+Glutamax supplemented with 10% FCS, 1 mM penicillin and 1 mM streptomycin at 37° C. in an atmosphere containing 5% CO2. HT2-19 cells, provided by Dr. A. Porter, were cultured in DMEM+NEAA, antibiotics, sodium pyruvate and glutamine, and supplemented with 10% FCS29. Cell extracts were prepared in TBS lysis buffer containing 50 mM TrisHCl, pH 7.4, 150 mM NaCl, 0.1% NP40, 0.1% Deoxycholate, 2 mM EDTA, 1 mM PMSF, Complete™ protease inhibitors (Roche), and normalized following spectrophometric dosage at 280 nm. Phosphatase inhibitors: 50 mM NaF, 40 mM β-Glycero-phosphate, 1 mM Na3VO4.
Kinase assays were performed in the same conditions as above. […] As shown in FIG. 4A-C, incubation of 20 ug HeLa cell extracts with CDKACTH1 yielded a very similar profile to that obtained with recombinant CDK/Cyclins, implying that these kinases were indeed phosphorylating the substrate sequence of the biosensor. […] Since phosphorylation events are counterbalanced by phosphatases in mammalian cell extracts, we asked whether the response measured would be further improved if phosphatase activity was blocked.

[2] = molecular target: T1, CDK4/Cyclin D (Homo sapiens, UniProt P11802); experiment: Real-time fluorescence kinase assay with recombinant CDK4/Cyclin D; assay type: biochemical; settings: 20 uM inhibitor; 75 nM CDK4/CyclinD, 25 nM CDKACTH1-Cy3
T1 construct: made in house; host or cells: E. coli
T1 sequence (P11802 whole entry, species assumed): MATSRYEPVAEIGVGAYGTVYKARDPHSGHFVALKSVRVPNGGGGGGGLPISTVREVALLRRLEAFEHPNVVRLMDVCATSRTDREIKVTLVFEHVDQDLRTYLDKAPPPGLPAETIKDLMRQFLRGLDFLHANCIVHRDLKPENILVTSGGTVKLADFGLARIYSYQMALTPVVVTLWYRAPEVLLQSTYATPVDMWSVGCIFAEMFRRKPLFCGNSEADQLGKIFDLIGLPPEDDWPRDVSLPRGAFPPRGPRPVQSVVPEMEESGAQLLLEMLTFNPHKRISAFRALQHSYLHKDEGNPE
T1 sequence (P24385 whole entry partner, species assumed): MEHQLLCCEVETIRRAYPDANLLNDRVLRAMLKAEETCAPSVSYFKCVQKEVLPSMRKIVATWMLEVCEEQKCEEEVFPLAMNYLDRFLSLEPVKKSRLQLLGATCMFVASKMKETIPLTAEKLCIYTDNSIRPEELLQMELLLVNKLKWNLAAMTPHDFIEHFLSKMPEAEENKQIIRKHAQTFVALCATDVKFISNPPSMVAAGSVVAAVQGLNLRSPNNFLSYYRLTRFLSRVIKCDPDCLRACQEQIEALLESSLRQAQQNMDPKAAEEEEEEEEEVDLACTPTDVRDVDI
Protocol: as §1
To address the issue of specificity, we asked whether other kinases could phosphorylate and thereby affect the fluorescence of CDKACTH1. We first examined CDK1/Cyclin B and CDK4/Cyclin D (FIGS. 3A and B).

[3] = test system: A375 rvluc2 cells; experiment: A375 xenograft tumour growth in NMRI nude mice; assay type: in vivo; settings: Roscovitine IP 50 mg/kg/day for 7 days
[4] = molecular target: T2, CDK2/Cyclin A (Homo sapiens, UniProt P24941); experiment: Real-time fluorescence kinase assay with recombinant active CDK2/Cyclin A; assay type: biochemical
T2 construct: made in house; host or cells: E. coli
Protocol: (§2) In order to characterize CDKACT-H1 biosensor in vitro, we first asked whether it could be used to monitor recombinant kinase activity in a real-time assay.
as §1, §2
In vitro characterization was performed as described in Example 2. […] Assays were performed at 30° C. for 1600s. Fluorescence emission of Cy5 was measured at 675 nm following excitation at 645 nm on Polarstar™ fluorimeter.
Assays were performed at 30° C. for 1600s. Fluorescence emission of Cy3 was measured at 590 nm following excitation at 544 nm on Polarstar™ fluorimeter.

CC(=O)c1c(C)c2cnc(Nc3ccc(N4CCNCC4)cn3)nc2n(C2CCCC2)c1=O [PD-0332991] was tested. Which “share of CDKACTH1 phosphorylating activity attributed to the kinases blocked by the inhibitor” value (shortened to “share … by the inhibitor”) [1] did it give?
Its value is “partial activity”.

O=C1NC(=NCc2cccs2)S/C1=C\c1ccc2ncccc2c1 [RO3306] was tested. Which “share … by the inhibitor” value [1] did it give?
The value was “larger part of activities”.

Which “effect of inhibitor on the CDKACTH1 fluorescence signal” value [2] does the source give for CC[C@H](CO)Nc1nc(NCc2ccccc2)c2ncn(C(C)C)c2n1 [roscovitine] here?
Its value is “no effect”.

What about the “share … by the inhibitor” value [1] of the same molecule?
The value was “larger part of activities”.

What about the “size of tumours compared to vehicle” value ([3]; versus DMSO vehicle) of the same molecule?
Its value is 55.6%.

And the “size of tumours compared to control” value ([3]; versus non-treated control)?
Its value is 53.8%.

For “CDKACTWWH1: peptide biosensor SEQ ID No 20: Pin1 WW phosphobinding domain, linker SEQ ID No 14, histone H1 substrate domain; synthesized, dye-labelled (KLPPGWEKRMSRSSGRVYYFNHITNASQWERPSGPGAGGTGGLPGGGGCSTPKKAKKL; Cy5 or Cy3 dye label; Polypeptide comprising: the WW domain of PIN1 wherein all Cystein residues are replaced by a Serine residue, a linker and the CDK substrate domain from histone H1)”, which “fluorescence enhancement compared with CDKACTH1” value ([4]; 25 nM Cy3-labelled sensors, 25 nM active CDK2/Cyclin A3) is on record?
Its value is “greater changes in fluorescence enhancement”.

What about the “fluorescence response to CDK2/CyclinA activity” value ([4]; 25 nM Cy5-CDKACT-WWH1, 25 nM active CDK2/Cyclin A3, 5 mM ATP, 20 mM MgCl2) of the same molecule?
The value was “significant changes in fluorescence enhancement”.
